Assay results published in ChEMBL document CHEMBL1201862, “PubChem BioAssay data set” (2004).
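Following 48 hours of exposure in 96-well plates, responses at five concentrations were used to interpolate endpoints linearly. GI50 = concentration required for 50% inhibition of growth.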 Active and inactive are the calls of the source. Rule as the data show it: active = GI50 up to about 1.1 µM and inactive = higher.

Key:
Test in all cases: inhibition of tumour cell growth, NCI panel, 48 h
[1] = tested on: SNB-19
[2] = tested on: HCC 2998
[3] = tested on: MCF7
[4] = tested on: Hs-578T
[5] = tested on: ACHN
[6] = tested on: DU-145
[7] = tested on: SF-295
[8] = tested on: K562
[9] = tested on: UACC-62
[10] = tested on: KM12
[11] = tested on: SK-MEL-2
[12] = tested on: SK-MEL-28
[13] = tested on: SF-539
[14] = tested on: NCI-H460
[15] = tested on: SF-268
[16] = tested on: NCI-H226
[17] = tested on: HOP-92
[18] = tested on: HOP-62
[19] = tested on: HCT-116
[20] = tested on: SNB-75

Measured: GI50

COc1ccc2cc(-c3ccc(OC)c(OC)c3)c(=O)oc2c1
inactive: [1] 40 µM | [2] > 100 µM | [3] > 100 µM | [4] 29.3 µM | [5] > 100 µM | [6] > 100 µM | [7] 53.1 µM | [8] > 100 µM | [9] > 100 µM | [10] > 100 µM | [11] > 100 µM | [12] > 100 µM | [13] > 100 µM | [14] > 100 µM | [15] 62.1 µM | [16] > 100 µM | [17] > 100 µM | [18] 69.5 µM | [19] > 100 µM

C#CCSC(C=C=C)P(=O)(OC(C)C)OC(C)C (configuration not stated)
inactive: [1] > 100 µM | [2] 28.4 µM | [3] 33.7 µM | [4] 12.9 µM | [5] 42.8 µM | [6] > 100 µM | [7] > 100 µM | [8] 23.7 µM | [9] > 100 µM | [10] > 100 µM | [11] > 100 µM | [12] > 100 µM | [14] > 100 µM | [15] 90.8 µM | [16] > 100 µM | [17] > 100 µM | [20] > 100 µM | [18] > 100 µM | [19] 27 µM

CC12CC(c3ccccc3O1)C(C(=O)Nc1nccs1)C(=O)N2 (configuration not stated)
inactive: [1] > 100 µM | [2] > 100 µM | [3] > 100 µM | [4] > 100 µM | [5] > 100 µM | [6] > 100 µM | [7] > 100 µM | [8] > 100 µM | [9] > 100 µM | [10] > 100 µM | [11] > 100 µM | [12] 40.5 µM | [14] > 100 µM | [15] > 100 µM | [16] > 100 µM | [17] 84.3 µM | [20] > 100 µM | [18] > 100 µM | [19] > 100 µM

COc1nc2ncc([C@@H](O)[C@H](O)CO)nc2c(=O)[nH]1
inactive: [1] > 100 µM | [3] > 100 µM | [4] > 100 µM | [5] > 100 µM | [6] > 100 µM | [7] > 100 µM | [8] > 100 µM | [9] > 100 µM | [10] > 100 µM | [11] > 100 µM | [12] > 100 µM | [13] > 100 µM | [14] > 100 µM | [15] > 100 µM | [16] > 100 µM | [17] > 100 µM | [20] > 100 µM | [18] > 100 µM | [19] > 100 µM

O=c1c(O)c(-c2ccc(O)cc2O)oc2cc(O)cc(O)c12 [MORIN]
inactive: [1] > 100 µM | [2] > 100 µM | [3] > 100 µM | [4] > 100 µM | [5] > 100 µM | [6] > 100 µM | [7] > 100 µM | [8] > 100 µM | [10] > 100 µM | [11] > 100 µM | [12] > 100 µM | [13] > 100 µM | [14] > 100 µM | [15] > 100 µM | [16] > 100 µM | [17] > 100 µM | [20] > 100 µM | [18] > 100 µM | [19] 86.1 µM

Brc1ccc(-c2ccc(-c3ccc(-c4ccc(Br)s4)s3)s2)s1
inactive: [2] > 100 µM | [3] > 100 µM | [4] > 100 µM | [5] > 100 µM | [6] > 100 µM | [7] > 100 µM | [8] > 100 µM | [9] > 100 µM | [10] > 100 µM | [12] > 100 µM | [13] > 100 µM | [14] > 100 µM | [15] > 100 µM | [16] 54.1 µM | [17] > 100 µM | [20] > 100 µM | [18] > 100 µM | [19] > 100 µM

O=C(Nn1c(-c2ccccc2)nc2ccccc2c1=O)c1ccccc1O
inactive: [1] 45 µM | [2] 70.1 µM | [3] 28.1 µM | [4] > 100 µM | [5] 37.8 µM | [6] 49.1 µM | [7] 63.2 µM | [8] 54 µM | [9] 23.4 µM | [10] 60.1 µM | [12] 39.3 µM | [13] 33.7 µM | [14] 41.8 µM | [15] 45.7 µM | [16] 38.9 µM | [17] 27.2 µM | [20] > 100 µM | [18] 76.9 µM | [19] 33.5 µM
